Test results reported in US8952024B2, “Herbicidal pyrimidone derivatives” (E I du Pont de Nemours and Company, priority 2009, dated 2015).
Where two headings read alike, the source gives them in different places.

Tests used:
Type in all cases: in vivo
[1] = test system: barnyardgrass (Echinochloa crus-galli); experiment: Test A pre-/postemergence plant response; conditions: Echinochloa crus-galli, 240 h, read-out: Plant response rating, Barnyardgrass; for pest or weed control at 125 g/ha: 125 g ai/ha; for pest or weed control at 500 g/ha: 500 g ai/ha, approx. ten days
Procedure, shortened: (§1)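 Both pre- and postemergence treatments are applied simultaneously, using chemicals formulated in a non-phytotoxic solvent mixture with surfactant. Postemergence plants are 2–10 cm high with one to two leaves. After approximately ten days in a greenhouse, injury is scored visually from 0 (none) to 100 (complete control) relative to untreated plants.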

[2] = test system: large crabgrass (Digitaria sanguinalis); experiment: Test A pre-/postemergence plant response; conditions: Digitaria sanguinalis, 240 h, read-out: Plant response rating, Crabgrass, Large; for pest or weed control at 125 g/ha: 125 g ai/ha; for pest or weed control at 500 g/ha: 500 g ai/ha, approx. ten days
Procedure, shortened: as §1

[3] = test system: wheat (Triticum aestivum); experiment: Test A pre-/postemergence plant response; conditions: Triticum aestivum, 240 h, read-out: Plant response rating, Wheat; for plant injury at 125 g/ha: 125 g ai/ha; for plant injury at 500 g/ha: 500 g ai/ha, approx. ten days
Procedure, shortened: as §1

corn (Zea mays) = experiment: Test A pre-/postemergence plant response; conditions: Zea mays, 240 h; for Corn plant response rating (crop injury, 0 = no effect, 100 = complete kill) at 125 g/ha: 125 g ai/ha
Procedure, shortened: as §1

[4] = test system: velvetleaf (Abutilon theophrasti); experiment: Test A pre-/postemergence plant response; conditions: Abutilon theophrasti, 240 h, read-out: Plant response rating, Velvetleaf; for pest or weed control at 125 g/ha: 125 g ai/ha; for pest or weed control at 500 g/ha: 500 g ai/ha, approx. ten days
Procedure, shortened: as §1

[5] = test system: pigweed (Amaranthus retroflexus); experiment: Test A pre-/postemergence plant response; conditions: Amaranthus retroflexus, 240 h, read-out: Plant response rating, Pigweed; for pest or weed control at 125 g/ha: 125 g ai/ha; for pest or weed control at 500 g/ha: 500 g ai/ha, approx. ten days
Procedure, shortened: as §1

[6] = test system: giant foxtail (Setaria faberii); experiment: Test A pre-/postemergence plant response; conditions: Setaria faberi, 240 h, read-out: Plant response rating, Foxtail, Giant; for pest or weed control at 125 g/ha: 125 g ai/ha; for pest or weed control at 500 g/ha: 500 g ai/ha, approx. ten days
Procedure, shortened: as §1

[7] = test system: morningglory (Ipomoea spp.); experiment: Test A pre-/postemergence plant response; conditions: Ipomoea, 240 h, read-out: Plant response rating, Morningglory; for pest or weed control at 125 g/ha: 125 g ai/ha; for pest or weed control at 500 g/ha: 500 g ai/ha, approx. ten days
Procedure, shortened: as §1

[8] = test system: barnyardgrass (Echinochloa crus-galli); experiment: Test B flooded paddy test; conditions: Echinochloa crus-galli, 360 h
Procedure, shortened: (§2)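 Rice, umbrella sedge, ducksalad and barnyardgrass were grown to the 2-leaf stage, flooded to 3 cm, and compound was applied directly to the paddy water, with that depth kept throughout. After 13 to 15 days in the greenhouse, plants were visually rated against controls on a 0 (no effect) to 100 (complete control) scale.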

rice (Oryza sativa) = experiment: Test B flooded paddy test; conditions: Oryza sativa
Procedure, shortened: as §2

[9] = test system: umbrella sedge (Cyperus difformis); experiment: Test B flooded paddy test; conditions: Cyperus difformis, 360 h
Procedure, shortened: as §2

[10] = test system: ducksalad (Heteranthera limosa); experiment: Test B flooded paddy test; conditions: Heteranthera limosa, 360 h
Procedure, shortened: as §2

[11] = test system: windgrass (Apera spica-venti); experiment: Test B postemergence plant response
Procedure, shortened: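 Plants grown in peat/vermiculite medium were sprayed postemergence at 2–18 cm height (1- to 4-leaf stage). After 13–15 days in the greenhouse, response was rated visually against untreated controls on a 0–100 scale (0 no effect, 100 complete control).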

[12] = post-emergence, Postemergence, 0 to 100 scale where 0 is no effect and 100 is complete control
[13] = post-emergence, Postemergence, 0 to 100 scale, 0 = no effect, 100 = complete control
[14] = pre-emergence, Preemergence, 0 to 100 scale, 0 = no effect, 100 = complete control
[15] = pre-emergence, Preemergence, visual injury, 0 to 100 scale (0 no effect, 100 complete control)

O=C1CCCC(O)=C1C(=O)c1cnc(-c2cccnc2)n(-c2ccccc2)c1=O [Compound 113, 5-[(2-hydroxy-6-oxo-1-cyclohexen-1-yl)carbonyl]-3-phenyl-2-(3-pyridinyl)-4(3H)-pyrimidone]
pest or weed control at 125 g/ha [1, 12]: 70%
pest or weed control at 500 g/ha [1, 13]: 90%
pest or weed control at 125 g/ha [1, 14]: 10%
pest or weed control at 500 g/ha [1, 15]: 90%
pest or weed control at 125 g/ha [2, 12]: 100%
pest or weed control at 500 g/ha [2, 13]: 100%
pest or weed control at 125 g/ha [2, 14]: 70%
pest or weed control at 500 g/ha [2, 15]: 100%
plant injury at 125 g/ha [3, 12]: 0%
plant injury at 500 g/ha [3, 13]: 60%
plant injury at 125 g/ha [3, 14]: 0%
plant injury at 500 g/ha [3, 15]: 0%
Corn plant response rating (crop injury, 0 = no effect, 100 = complete kill) at 125 g/ha (corn (Zea mays); [12]): 0%
Corn plant response rating (crop injury, 0 = no effect, 100 = complete kill) at 500 g/ha (corn (Zea mays); post-emergence, Postemergence, 500 g ai/ha, 0 to 100 scale, 0 = no effect, 100 = complete control, approx. ten days): 60%
Corn plant response rating (crop injury, 0 = no effect, 100 = complete kill) at 125 g/ha (corn (Zea mays); [14]): 0%
pest or weed control at 125 g/ha [4, 12]: 100%
pest or weed control at 500 g/ha [4, 13]: 100%
pest or weed control at 125 g/ha [4, 14]: 100%
pest or weed control at 500 g/ha [4, 15]: 100%
pest or weed control at 125 g/ha [5, 12]: 100%
pest or weed control at 500 g/ha [5, 13]: 100%
pest or weed control at 125 g/ha [5, 14]: 100%
pest or weed control at 500 g/ha [5, 15]: 100%
pest or weed control at 125 g/ha [6, 12]: 90%
pest or weed control at 500 g/ha [6, 13]: 100%
pest or weed control at 125 g/ha [6, 14]: 70%
pest or weed control at 500 g/ha [6, 15]: 90%
pest or weed control at 125 g/ha [7, 12]: 100%
pest or weed control at 500 g/ha [7, 13]: 100%
pest or weed control at 125 g/ha [7, 14]: 30%
pest or weed control at 500 g/ha [7, 15]: 80%
pest or weed control at 250 g/ha ([8]; 250 g ai/ha, flooded paddy test, visual rating on 0 to 100 scale (0 no effect, 100 complete control) after 13 to 15 days, read-out: Plant response rating, Flood, Barnyardgrass): 15%
pest or weed control at 62 g/ha ([8]; Flood (flooded paddy test), 62 g ai/ha, scale of 0 to 100 where 0 is no effect and 100 is complete control, 13 to 15 days, read-out: Plant response rating, Barnyardgrass): 10%
plant injury at 250 g/ha (rice (Oryza sativa); 250 g ai/ha, flooded paddy test, visual rating on 0 to 100 scale (0 no effect, 100 complete control) after 13 to 15 days, read-out: Plant response rating, Flood, Rice): 0%
plant injury at 62 g/ha (rice (Oryza sativa); Flood (flooded paddy test), 62 g ai/ha, scale of 0 to 100 where 0 is no effect and 100 is complete control, 13 to 15 days, read-out: Plant response rating, Rice): 0%
pest or weed control at 250 g/ha ([9]; 250 g ai/ha, flooded paddy test, visual rating on 0 to 100 scale (0 no effect, 100 complete control) after 13 to 15 days, read-out: Plant response rating, Flood, Sedge, Umbrella): 70%
pest or weed control at 62 g/ha ([9]; Flood (flooded paddy test), 62 g ai/ha, scale of 0 to 100 where 0 is no effect and 100 is complete control, 13 to 15 days, read-out: Plant response rating, Sedge, Umbrella): 40%
pest or weed control at 250 g/ha ([10]; 250 g ai/ha, flooded paddy test, visual rating on 0 to 100 scale (0 no effect, 100 complete control) after 13 to 15 days, read-out: Plant response rating, Flood, Ducksalad): 70%
pest or weed control at 62 g/ha ([10]; Flood (flooded paddy test), 62 g ai/ha, scale of 0 to 100 where 0 is no effect and 100 is complete control, 13 to 15 days, read-out: Plant response rating, Ducksalad): 25%
Windgrass plant response rating (0 to 100 scale) ([11]; 62 g ai/ha, postemergence, 0 is no effect, 100 is complete control, 13 to 15 days): 30
pest or weed control at 125 g/ha ([11]; Apera spica-venti, post-emergence, 360 h, Postemergence, 125 g ai/ha, scale 0 to 100 (0 no effect, 100 complete control), read-out: Plant response rating, Windgrass): 35%
